Source: patent publication US8865748B2, “Compounds and compositions for stabilizing hypoxia inducible factor-2 alpha as a method for treating cancer” (Akebia Therapeutics Inc., priority 2011, dated 2014)

Columns and labels:
VEGF mRNA = VEGF mRNA expression in wild type murine embryonic fibroblasts (quantitative PCR); format: cell-based; conditions: hypoxic conditions (1% O2); 1, 10 and 100 μM; vs. hypoxia control; FIG. 1A
Experimental: Total RNA was isolated from tissues and cells by using TRIzol™ Reagent (Invitrogen) and the RNeasy kit (Qiagen), respectively. 1 μg RNA was used for reverse transcription using SuperScript II First-Strand Synthersis System (Invitrogen). cDNA's were amplified in a SYR Green or TaqMan Universal Master Mix (Applied Biosystems). Quantitative PCR (qPCR) was performed on ABI Prism 7700 sequence detection system. PCR conditions are: 10 min at 95° C., 40 cycles of 15 seconds at 95° C. and 1 minute at 60° C. The relative amount of mRNA was calculated after normalization to β-actin.
Cells were cultured in DMEM (#11965-092, Invitrogen) supplemented with 10% fetal bovine serum (Invitrogen), 100 U/mL penicillin and […] streptomycin. For glucose deprivation, DMEM without glucose (#11966-025, Invitrogen) was used.
Mouse embryonic fibroblasts (MEFs) were isolated from E12.5 embryos and immortalized by stable transfection with SV40 large T antigen.

Pmel17 mRNA = assay: Evaluation of lung metastases (Pmel17 mRNA, nested PCR) in B16F10 tumor-bearing mice; format: in vivo; conditions: FIG. 5; stabilizer I.P., GM-CSF I.T.; vs. vehicle control
Experimental: Lung metastases were evaluated by detection of mRNA for melanocyte-specific proteins within the lungs of tumor-bearing mice. B16F10 tumor-bearing mice were treated with GM-CSF and/or the disclosed HIF-2α stabilizer, as depicted in FIG. 3. At the time of sacrifice, lungs were excised and flash-frozen in liquid nitrogen. Frozen lungs were homogenized in liquid nitrogen and the pulverized material was dissolved in TRIzol™ reagent (Invitrogen). […] The melanocyte-specific Pmel17 was detected by nested PCR using a modification of the protocol described by Tsukamoto et al. For the initial reaction, 30 cycles of PCR were carried out (95° C. for 1 minute, 58° C. for 1 min, 72° C. for 1 min) in a 20 μL reaction volume containing 2 μL of cDNA. […] Data were analyzed according to the comparative threshold method and normalized against the GAPDH internal control transcript. Results are semi-quantitative and represent the fold difference in transcript levels in vehicle-treated control mice as compared with levels in mice treated with the disclosed HIF-2α stabilizer and/or GM-CSF.
Lung metastases were evaluated by detection of mRNA for melanocyte-specific proteins within the lungs of tumor-bearing mice. […] Data were analyzed according to the comparative threshold method and normalized against the β-actin internal control transcript. […]

HIF-1α = assay: Immunoblot for HIF-1α in murine bone marrow-derived macrophages; format: cell-based; conditions: treated for 18 hours, FIG. 11A
Experimental: To generate bone marrow-derived macrophages (BDMs), femoral bone marrow was isolated and progenitor cells were plated in RPMI-1640 supplemented with 10% FBS, 1% PSA, 10 μg/mL of polymyxin B, and 20 ng/mL of recombinant murine M-CSF. Cells were cultured for 5 days with the addition of fresh M-CSF every other day. Differentiated BDM were serum-starved for 2 hours and then treated with 100 ng/mL of murine GM-CSF and/or 25 μM the disclosed HIF-2α stabilizer in RPMI-1640 containing 1% FBS and 10 μg/mL polymixin B. Culture supernatants were collected after 72 hours and assayed for VEGF and sVEGFR-1 content by ELISA (R&D Systems).
In order to confirm the selective upregulation of HIF-2α by the disclosed HIF-2α stabilizer, murine bone marrow-derived macrophages were treated with the disclosed HIF-2α stabilizer for 18 hours, and cells were then lysed and immunoblotted for HIF-1α and HIF-2α.

tumor growth = assay: Tumor growth in LysMcre control mice and mice with myeloid-specific deletion of HIF-2α; format: in vivo; conditions: FIG. 15
Text: HIF-2α^flox/flox mice (originally developed by Dr. Celeste Simon, University of Pennsylvania) and LysMcre recombinase mice (originally developed by Irmgard Foerster, University of Duesseldorf) (both purchased from The Jackson Laboratory, Bar Harbor, Me.) were crossed to generate mice homozygous for both LysMcre and the floxed HIF-2α allele. LysMcre recombinase mice, which express no floxed alleles, were used as controls. Deletion of HIF-2α in HIF-2α^flox/flox/LysMcre macrophages, but not the LysMcre control macrophages, was confirmed at the transcript level by real-time PCR.
The disclosed HIF-2α stabilizer is not targeted specifically to macrophages, and will stabilize HIF-2α in all tissues, not only the tumor-associated macrophages. In order to determine the role of macrophages in the anti-tumor response to the disclosed HIF-2α stabilizer, mice with a myeloid-specific deletion of HIF-2α (HIF-2α^flox/flox/LysMcre mice) were utilized.

[1] = mice with HIF-2α-deficient macrophages

Compound: O=C(O)CNC(=O)c1ncc(-c2cccc(F)c2)cc1O [disclosed HIF-2α stabilizer, {[5-(3-Fluorophenyl)-3-hydroxypyridine-2-carbonyl]amino}acetic acid]
- VEGF mRNA (relative amount) (VEGF mRNA): dramatic reduction
- relative metastasis to the lung as measured by Pmel17 mRNA expression (Pmel17 mRNA): reduced metastasis
- HIF-1α protein (HIF-1α): no corresponding increase
- tumor growth (tumor growth; LysMcre control mice): inhibited tumor growth
- magnitude of the anti-tumor response relative to control mice (tumor growth; [1]): much less
- tumor growth (tumor growth; [1]): reduced tumor growth
